# Test results taken from patent US20200024278A1, “COMPOSITION COMPRISING ANTIBIOTIC COMPOUND AND AN HETEROCYCLIC COMPOUND AND THEIR USE IN PREVENTING OR TREATING BACTERIAL INFECTIONS” (MUTABILIS, priority 2016, published 2020).
# Like-named read-outs stand apart in the source and are kept apart here.
# Columns and labels:
# KPN 6299 = assay: MIC, broth microdilution (CLSI), substance alone or ATB combined with compound at 4 or 8 μg/mL; assay type: cell-based, K. pneumoniae; conditions: Klebsiella pneumoniae, antibiotic alone, read-out: MIC ATB alone
# How it was run: (§1)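 CLSI M7-A7 broth microdilution. ca-MHB, 5·10^5 CFU/mL log-phase cells, 16-20 h, 35° C, ambient air. Fosfomycin wells + 25 μg/ml glucose-6-phosphate. Visual MIC read.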
# KPN BAA-1898 = assay: as above; assay type: cell-based, K. pneumoniae; conditions: Klebsiella pneumoniae, BAA1898, KPN BAA-1898
# How it was run: as §1
# KPN UFR68 = assay: as above; assay type: cell-based, K. pneumoniae; conditions: Klebsiella pneumoniae, substance alone
# How it was run: as §1
# KPN UFR42 = assay: as above; assay type: cell-based, K. pneumoniae; conditions: Klebsiella pneumoniae; antibiotic alone; KPN UFR42; read-out: MIC ATB alone
# How it was run: as §1
# SAU 29213 = assay: as above; assay type: cell-based, S. aureus; conditions: Staphylococcus aureus
# How it was run: as §1
# PAE 27853 = assay type: cell-based, P. aeruginosa; conditions: tntbc: Too numerous to be counted
# Procedure: (§2) Method 4: Determination of the Spontaneous Mutation Frequency of the Compounds Alone and Combined with Antibiotics.
# (§3) Bacterial isolates (Table 3) were grown overnight at 35° C. on TSA plates (Becton-Dickinson and Company) in ambient air. After 24 h of incubation, isolated bacterial colonies were added to cation-adjusted Mueller-Hinton broth (ca-MHB; Becton-Dickinson and Company) and cultured for approximately 6 h at 35° C. The pre-culture was stopped once bacteria have reached an OD600 nm of 0.5 for 200 μL. The bacterial suspension was centrifuged at 4000 rpm for 20 min. The supernatant was then discarded and the bacterial pellet was dissolved in ca-MHB to obtain 10^9 to 10^10 CFU/mL. Assays including Fosfomycin were supplemented with 25 μg/ml of Glucose-6-phosphate. 100 μL of the adjusted bacterial suspension were spread on agar plates containing different concentrations of the compounds of the present invention alone or combined with an antibacterial (Table 1). The plates were incubated for 24-48 h at 35° C. in ambient air. CFU were numerated on each agar plate containing compound. The number of resistant colonies obtained was divided by the starting inoculum to give the frequency of spontaneous resistance for a given incubation time (24 and 48 h).
# PAE UFR90 [1] = assay type: cell-based, P. aeruginosa; conditions: tntbc: Too numerous to be counted
# Procedure: as §2, §3
# PAE UFR48 [2] = assay type: cell-based, P. aeruginosa; conditions: tntbc: Too numerous to be counted
# Procedure: as §2, §3
# ECL P99 = assay: MIC, broth microdilution (CLSI), substance alone or ATB combined with compound at 4 or 8 μg/mL; assay type: cell-based, E. cloacae; conditions: Enterobacter cloacae, ECL P99
# How it was run: as §1
# SPN 49619 = assay: as above; assay type: cell-based, S. pneumoniae; conditions: Streptococcus pneumoniae, SPN 49619
# How it was run: as §1
# ECO UFR39 = assay: as above; assay type: cell-based, E. coli; conditions: Escherichia coli, ECO UFR39
# How it was run: as §1
# ECO 190317 = assay: as above; assay type: cell-based, E. coli; conditions: Escherichia coli, ECO 190317
# How it was run: as §1
# PAE 105250 = assay: as above; assay type: cell-based, P. aeruginosa; conditions: Pseudomonas aeruginosa; antibiotic alone; PAE 105250; read-out: MIC ATB alone
# How it was run: as §1
# PAE UFR90 [3] = assay: as above; assay type: cell-based, P. aeruginosa; conditions: PAE UFR90
# How it was run: as §1
# PAE UFR48 [4] = assay: as above; assay type: cell-based, P. aeruginosa; conditions: Pseudomonas aeruginosa, antibiotic alone; PAE UFR48; read-out: MIC ATB alone
# How it was run: as §1
# [5] = antibiotic alone, read-out: MIC ATB alone
smiles,measurement,setting,value
"C[C@@H]1O[C@@H]1P(=O)(O)O [FOS, Fosfomycin, reference compound]",MIC,KPN 6299,> 128 µg/mL
same,MIC,KPN BAA-1898; [5],64 µg/mL
same,MIC,"KPN BAA-1898; substance alone, read-out: MIC",64 µg/mL
same,MIC,KPN UFR68,32 µg/mL
same,MIC,KPN UFR42,128 µg/mL
same,MIC,"SAU 29213; antibiotic alone, SAU 29213, read-out: MIC ATB alone",2 µg/mL
same,MIC,"SAU 29213; substance alone, SAU 29213 (MSSA 29213), read-out: MIC",2 µg/mL
same,Frequency of spontaneous resistance,PAE 27853; single agent at 4.MIC,1.2E−06
same,Frequency of spontaneous resistance,PAE 27853; single agent at 8.MIC,1.4E−06
same,Frequency of spontaneous resistance,PAE UFR90 [1]; single agent at 4.MIC,3.0E−07
same,Frequency of spontaneous resistance,PAE UFR90 [1]; single agent at 8.MIC,2.0E−07
same,Frequency of spontaneous resistance,PAE UFR48 [2]; single agent at 4.MIC,1.1E−06
same,Frequency of spontaneous resistance,PAE UFR48 [2]; single agent at 8.MIC,1.1E−06
same,MIC,ECL P99; [5],> 1020 µg/mL
same,MIC,"ECL P99; substance alone, read-out: MIC",> 1020 µg/mL
same,MIC,SPN 49619; [5],32 µg/mL
same,MIC,"SPN 49619; substance alone, read-out: MIC",32 µg/mL
same,MIC,ECO UFR39; [5],4 µg/mL
same,MIC,"ECO UFR39; substance alone, read-out: MIC",4 µg/mL
same,MIC,ECO 190317; [5],0.5 µg/mL
same,MIC,"ECO 190317; substance alone, read-out: MIC",0.5 µg/mL
same,MIC,PAE 105250,256 µg/mL
same,MIC,"PAE UFR90 [3]; Pseudomonas aeruginosa, antibiotic alone, read-out: MIC ATB alone",8 µg/mL
same,MIC,"PAE UFR90 [3]; Pseudomonas aeruginosa, substance alone, read-out: MIC",16 µg/mL
same,MIC,PAE UFR90 [3]; substance alone,8 µg/mL
same,MIC,PAE UFR48 [4],16 µg/mL
